Several values for one entry are separate records, joined by “and”; a condition that tells them apart may be missing. Identical values can stand only once. Like-named read-outs stand apart in the source and are kept apart here.
Tests used:
[1] = system: Wild type L1210 leukemic cells; assay: In vitro cytotoxicity, wild type L1210 leukemic cells (L1210/0); assay type: cell-based; details: for ID50: L1210, 72 hours incubation
Description: Four ml of cell suspension (10^5 cells/ml) are added to culture tubes and the appropriate concentration (0.01, 0.1, 1 or 10 μg/ml final concentration) of drug added to the culture tubes. After 72 hours of incubation, the cell concentration of control and experimental cultures are determined with the aid of a Coulter Counter® Model ZBf and the percent inhibition calculated. […]

[2] = system: L1210 leukemia cells (L1210/PDD); assay: In vitro cytotoxicity / cross-resistance, L1210/PDD (L1210/DDP) cells resistant to cisdiamminedichloroplatinum(II); assay type: cell-based; details: for ID50 L1210/DDP: Tables VII and VIII, 5760 min; for ID50 L1210/PDD: 96 hours
Description: Four ml of cell suspension were added to culture tubes and the appropriate concentration (0.01, 0.1, 1 or 10 μg/ml final drug concentration) was added. After 96 hours the cell concentration of control and experimental cultures were calculated with the aid of a Coulter Counter® Model ZBf and the percent inhibition calculated.

[3] = system: L1210 cells; assay: In vivo anti-tumor activity, L1210, single i.p. injection; design: species or system BDF1 mice; details: for Maximal Effective Dose: single i.p. injection
Description: About 24 hours after inoculation of the cells, the mice were injected intraperitoneally with varying dosages of complexes of the present invention. […] Long term survival signifies that animals were alive 60 days after inoculation with L1210 cells.

[4] = system: L1210/0 leukemia cells; assay: In vivo anti-tumor activity, L1210 (L1210/0), multiple i.p. doses; design: species or system BDF1 mice; details: for Maximal Effective Dose: i.p. on days 1, 5 and 9
Description: BDF1 mice were inoculated intraperitoneally with 10^6 L1210 cells. About 24 hours after inoculation of the cells, the mice were injected intraperitoneally with varying dosages of complexes of the present invention. Six mice were used for each dosage level in each experiment with an equal number of control mice inoculated with 10^6 L1210 cells and left untreated with a given complex. The results [%T/C=(survival time of treated animals/survival time of control animals)×100] are set forth below. Long term survival signifies that animals were alive 60 days after inoculation with L1210 cells.
The procedure of Example 16 was repeated except that the treated animals were injected with multiple doses of the complex as indicated below:
(§1) The anti-tumor activity of compound number 3 was evaluated against cells sensitive to (L1210/0) and resistant to (L1210/PDD) the standard platinum complex cis-diamminedichloroplatinum(II).
The following complexes were tested in vivo oncolytic activity following 3 i.p. injections (days 1, 5, 9) according to the protocol described in Examples 16 and 17.
BDF1 mice were innoculated intraperitoreally with 10^6 L1210 leukemia cells and treatment was begun on the next day (day 1). Two treatment schedules, i.e. single i.p. injection of the drug and i.p. injections on days 1, 5 and 9 according to the protocol described in Examples 16 and 17 were used.

[5] = system: L1210/PDD; assay type: in vivo, BDF1 mice; details: days 1,5,9
Description: as §1

[6] = system: Male albino mice; assay: Acute toxicity, single intraperitoneal injection (Example 19); assay type: in vivo; details: single i.p.; for Calculated LD10 / Calculated LD50 / Calculated LD90: 14 days
Description: Fourteen days after treatment all surviving mice were sacrified and the LD10, LD50 and LD90 were calculated.

[7] = Acute lethality, single intraperitoneal injection (Table XIII); assay type: in vivo
[8] = BUN (RUN [sic]) with the acute lethality data (Table XIII); assay type: in vivo; details: mean + 1 S.D.
[9] = system: B16 cells; assay: Melanotic melanoma test, i.p. inoculated B16 melanoma; assay type: in vivo, BDF1 mice; details: for Maximal Effective Dose: B16, i.p. days 1, 5 and 9; for % T/C / Long Term Survivors: B16, i.p. days 1, 5 and 9, at maximal effective dose; for Long Term Survivors: 60 days
Description: The animals used were BDF1 mice, all of the same sex, weighing a minimum of 18 g. and all within a 4 g. weight range. There were 6 animals per test group. […] The test compounds were administered intraperitoneally on days 1, 5 and 9 at various doses. The animals were weighed and survivors were recorded on a regular basis for 60 days. The median survival time and the ratio of survival time for treated (T)/control (C) animals were calculated. […] The criterion for efficacy is T/C×100≥125%.

[10] = Example 18, L1210/0, 25 mg/kg, days 1,5,9
[11] = Example 18, L1210/0, 50 mg/kg, days 1,5,9
[12] = Table IX, single i.p., at maximal effective dose
[13] = Tables X and XI, days 1, 5 and 9, at maximal effective dose, alive 60 days after tumor inoculation
[14] = Tables X and XI, i.p. on days 1, 5 and 9, at maximal effective dose

## NC1CCCCC1N.O.O=C1OC(C(O)CO)C([O-])=C1O.O=C1OC(C(O)CO)C([O-])=C1O.[Pt+2] (stereo not drawn) [Compound 3, cis-bis-ascorbato(DACH)Pt(II).1H2 O]
[1]
  ID50: 5.0 µg/mL
[2]
  ID50 L1210/DDP: 5.0 µg/mL
  ID50 L1210/PDD: 2.6 µg/mL
[3]; single i.p., 50 mg/kg
  % T/C: 125%
[3]; single i.p., 60 mg/kg
  % T/C: 163%
[3]; single i.p., 75 mg/kg
  % T/C: 143%
[3]; single i.p., 90 mg/kg
  % T/C: 145%
[3]; single i.p., 100 mg/kg
  % T/C: Toxic
[4]; 5 mg/kg, days 1-9
  % T/C: 142%
[4]; 10 mg/kg, days 1,5,9
  % T/C: 123%
[4]; 10 mg/kg, days 1-9
  % T/C: 184%
[4]; 20 mg/kg, days 1,5,9
  % T/C: 196%
  Long Term Survivors: 1/6
[4]; 20 mg/kg, days 1-9
  % T/C: 239%
  Long Term Survivors: 1/6
[4]; 25 mg/kg, days 1,5,9
  % T/C: 176%
[4]; 30 mg/kg, days 1,5,9
  % T/C: 257%
  Long Term Survivors: 1/6
[4]; 30 mg/kg, days 1,5,9,13
  % T/C: 273%
  Long Term Survivors: 1/6
[4]; Example 18, L1210/0, 6.25 mg/kg, days 1,5,9
  % T/C: 117%
[4]; Example 18, L1210/0, 12.5 mg/kg, days 1,5,9
  % T/C: 135%
[4]; [10]
  % T/C: 181%
  SURVIVORS: 2/10
[4]; [11]
  % T/C: 247%
  SURVIVORS: 1/10
[4]; Example 18, L1210/0, 100 mg/kg, days 1,5,9
  % T/C: 104%
[5]; 6.25 mg/kg
  % T/C: 115%
[5]; 12.5 mg/kg
  % T/C: 124%
[5]; 25 mg/kg
  % T/C: 135%
[5]; 50 mg/kg
  % T/C: 223%
  SURVIVORS: 3/10
[5]; 100 mg/kg
  % T/C: 172%
[6]; 110 mg/kg
  DEATHS/TREATED: 1/6
[6]; 125 mg/kg
  DEATHS/TREATED: 2/6
[6]; 140 mg/kg
  DEATHS/TREATED: 4/6
[6]; 175 mg/kg
  DEATHS/TREATED: 6/6
[6]
  Calculated LD10: 108 mg/kg
  Calculated LD50: 125 mg/kg
  Calculated LD90: 150 mg/kg

## O.O.O=C([O-])C[N-]CC(=O)O.[NH-]C1CCCCC1[NH-].[Pt] [Compound 11, iminodiacetato(DACH)Pt(II).2H2 O]
[1]
  ID50: 4.2 µg/mL
[2]
  ID50 L1210/PDD: 1.6 µg/mL
[3]; Table IX
  Maximal Effective Dose: 50 mg/kg
[3]; [12]
  % T/C: 163%
[3]; single i.p., 50 mg/kg
  % T/C: 163%
[3]; single i.p., 100 mg/kg
  % T/C: 109%
  toxicity remark: Apparent Toxicity
[4]; 25 mg/kg, days 1,5,9
  % T/C: 199%
[4]; 50 mg/kg, days 1,5,9
  % T/C: 220%
  Long Term Survivors: 2/6
[4]; [13]
  Long Term Survivors: 2/6
[4]; Tables X and XI
  Maximal Effective Dose: 50 mg/kg
[4]; [14]
  % T/C: 220%
[6]; 85 mg/kg
  DEATHS/TREATED: 1/6
[6]; 100 mg/kg
  DEATHS/TREATED: 3/6
[6]; 125 mg/kg
  DEATHS/TREATED: 5/6
[6]; 158 mg/kg
  DEATHS/TREATED: 4/6
[6]; 200 mg/kg
  DEATHS/TREATED: 6/6
[6]
  Calculated LD10: 80 mg/kg
  Calculated LD50: 115 mg/kg
  Calculated LD90: 155 mg/kg
[7]
  LD10: 53 mg/kg
  LD50: 107 mg/kg
  LD90: 169 mg/kg
[8]
  RUN: 23 ± 4 mg/100 ml

## CN(CC(=O)[O-])CC(=O)[O-].NC1CCCCC1N.O.[Pt+2] [Compound 28, N--Methyliminodiacetato(DACH)Pt(II).1H2 O]
[1]
  ID50: 1.6 µg/mL
[2]
  ID50 L1210/DDP: 1.3 µg/mL
[3]; Table IX
  Maximal Effective Dose: 25 mg/kg
[3]; [12]
  % T/C: 180%
[3]; single i.p., 12.5 mg/kg
  % T/C: 161%
[3]; single i.p., 25 mg/kg
  % T/C: 185%
[3]; single i.p., 50 mg/kg
  % T/C: Toxic
[4]; [13]
  Long Term Survivors: 5/6
[4]; Tables X and XI
  Maximal Effective Dose: 12.5 mg/kg
[4]; [14]
  % T/C: 550%
[9]
  Maximal Effective Dose: 25 mg/kg
  % T/C: 205%
  Long Term Survivors: 0/6
[7]
  LD10: 49 mg/kg
  LD50: 92 mg/kg
  LD90: 170 mg/kg
[8]
  RUN: 22 ± 3 mg/100 ml

## N.N.[Cl][Pt][Cl] [DDP, diamminedichloroplatinum II, reference compound]
[1]; L1210/0, Example 15 table, 4320 min
  ID50 L1210/0: 0.1 µg/mL
[2]
  ID50 L1210/PDD: 5.5 µg/mL
[3]; Table IX
  Maximal Effective Dose: 9 mg/kg
[3]; [12]
  % T/C: 150%
[4]; [13]
  Long Term Survivors: 1/6
[4]; Tables X and XI
  Maximal Effective Dose: 5 mg/kg
[4]; [14]
  % T/C: 210% and 220%
[9]
  Maximal Effective Dose: 5 mg/kg
  % T/C: 172%
  Long Term Survivors: 1/6
